Assay results taken from patent publication US12441688B1, “CCR5 inhibitor” (KING SAUD UNIVERSITY, priority 2025, dated 2025).

Target: T1, CCR5 receptor (Homo sapiens, UniProt P51681)
T1 construct: expressed in transfected cells; host or cells: Chinese hamster ovary (CHO) cells expressing the CCR5 receptor, kept under blasticidin S selection
Assay: CCR5 binding inhibition assay in CHO cells expressing the CCR5 receptor
From the text: All of the reagents and cell lines were obtained from commercial suppliers like Sigma Aldrich, Merck India Ltd., Himedia, and Rankem chemicals. Chinese Hamster Ovaries (CHO) cells expressing the CCR5 receptor were maintained in Ham's F-12 medium supplemented with 10% fetal calf serum, 50 units of penicillin per milliliter, and 50 micrograms of streptomycin per milliliter, in the presence of 5 micrograms of blasticidin S hydrochloride per milliliter. […] The cells were then washed. […] The inhibitory activity of the compounds on CCR5 binding was calculated using the formula: [1−(E−N)/(P−N)]×100%.
In this formula, N represents the absorbance at 450 nm in the negative control (the control antibody), while P corresponds to the absorbance in the positive control (the detecting antibody). E corresponds to the absorbance of the test compounds.
The data was analyzed using non-linear regression analysis to determine the IC50 values for both compounds.

T1 sequence (P51681 whole entry): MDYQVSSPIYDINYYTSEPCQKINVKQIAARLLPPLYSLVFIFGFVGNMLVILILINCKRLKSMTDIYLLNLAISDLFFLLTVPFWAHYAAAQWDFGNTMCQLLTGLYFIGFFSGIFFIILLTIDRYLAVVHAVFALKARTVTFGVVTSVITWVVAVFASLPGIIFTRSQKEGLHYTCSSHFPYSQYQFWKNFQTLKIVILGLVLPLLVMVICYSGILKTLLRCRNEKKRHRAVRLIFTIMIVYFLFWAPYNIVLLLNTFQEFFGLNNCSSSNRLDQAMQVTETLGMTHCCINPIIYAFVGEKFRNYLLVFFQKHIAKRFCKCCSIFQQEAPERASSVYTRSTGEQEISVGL

| Compound | Percent inhibition against CCR5 (1 nM compound, listed as test compound, 0.001 µM) | inhibition at 0.001 µM (1 nM compound, read-out: Percent inhibition against CCR5) | Percent inhibition against CCR5 (10 nM compound, listed as test compound, 0.01 µM) | inhibition at 0.01 µM (10 nM compound, read-out: Percent inhibition against CCR5) | Percent inhibition against CCR5 (100 nM compound, 0.1 µM) | inhibition at 0.1 µM (100 nM compound, read-out: Percent inhibition against CCR5) | Percent inhibition against CCR5 (1000 nM compound, 1 µM) | inhibition at 1 µM (1000 nM compound, read-out: Percent inhibition against CCR5) | Percent inhibition against CCR5 (2000 nM compound, listed as test compound, 2 µM) | inhibition at 2 µM (2000 nM compound, read-out: Percent inhibition against CCR5) | IC50 (non-linear regression) | Percent inhibition against CCR5 (1 nM compound) | Percent inhibition against CCR5 (10 nM compound) | Percent inhibition against CCR5 (100 nM compound) | Percent inhibition against CCR5 (1000 nM compound) | Percent inhibition against CCR5 (2000 nM compound) |
| --- | --- | --- | --- | --- | --- | --- | --- | --- | --- | --- | --- | --- | --- | --- | --- | --- |
| Cc1n[nH]c(C(C)C)c1C(=O)N1CCCN(Cc2ccc(Oc3ccc(C#N)cc3)cc2)CC1 [Novel Compound, 4-(4-((4-(5-isopropyl-3-methyl-1H-pyrazole-4-carbonyl)-1,4-diazepan-1-yl)methyl)phenoxy)benzonitrile] | 24.5% | ≥ 24.5% | 39.8% | ≥ 39.8% | 59.1 ± 3.12% | ≥ 59.1% | 78.2 ± 4.75% | ≥ 78.2% | 91.3% | ≥ 91.3% | 2.62 nM | – | – | – | – | – |
| Maraviroc [reference compound] | – | – | – | – | – | – | – | – | – | – | – | 20.0 ± 1.93% | 28.5 ± 2.40% | 55.1 ± 2.81% | 68.2 ± 2.97% | 85.3% |
